Assay results: patent US20180066231A1, “MESENCHYMAL STEM CELL CULTURE MEDIUM, METHODS FOR CULTURING MESENCHYMAL STEM CELLS, AND MESENCHYMAL STEM CELLS” (ROHTO PHARMACEUTICAL CO., LTD., priority 2015, published 2018)

System: Umbilical cord derived mesenchymal stem cells (UC-MSC)
Experiment: Test 4: induction of oxidative stress resistance (Rotenone treatment, nucleus count)
Format: cell-based
Conditions: Rotenone 0 nM, 100 nM, 200 nM, 500 nM, 1 μM; after 48 hours; FIG. 11
Description: (UC-MSC; Umbilical Cord derived Mesenchymal Stem Cells Wharton's Jelly (HMSC-WJ), FC-0020, LIFELINE CELL TECHNOLOGY Co., Ltd.; UC-MSC; Umbilical Cord derived Mesenchymal Stem Cells ScienCell Research Laboratories, Inc; and Umbilical Cord derived Mesenchymal Stem Cells ATCC) were conditioned with a recommended medium of each entity at 37° C. under 5% of CO2, and they were exchanged with the recommended medium of each entity or the medium of Example 1 (0.3-1×10^5 cells/well; 6 well plate). The passage was carried out every 2 to 3 days and those cells were treated with Rotenone of the following concentrations (0 nM, 100 nM, 200 nM, 500 nM, 1 μM). After 48 hours, these cells were stained with Hoechest33258 and the number of nucleus was counted using ImageXpress (Molecular Devices, LLC.).

C=C(C)[C@H]1Cc2c(ccc3c2O[C@@H]2COc4cc(OC)c(OC)cc4[C@@H]2C3=O)O1 [Rotenone]
cell number of UC-MSC: decreases in a concentration dependent manner
